# Like-named read-outs stand apart in the source and are kept apart here. Positions of bridges follow the written chain, without caps; N, C: chain ends. Non-standard residues stand in square brackets, D forms with d. Residues, ends and D or L forms follow the SMILES beside them. ξ: configuration not given here. Phe(3,4,5-F3) = N[C@@H](Cc1cc(F)c(F)c(F)c1)C(=O)O; Phe(3-Me) = Cc1cccc(C[C@H](N)C(=O)O)c1; d(cisHyp) = O=C(O)[C@H]1C[C@@H](O)CN1; Bta = N[C@@H](Cc1csc2ccccc12)C(=O)O; ξPro(4R-OH) = O=C(O)C1C[C@@H](O)CN1; NMeIle(3ξ) = CCC(C)[C@H](NC)C(=O)O; Hyp = O=C(O)[C@@H]1C[C@@H](O)CN1; NMeF = CN[C@@H](Cc1ccccc1)C(=O)O; NMeE = CN[C@@H](CCC(=O)O)C(=O)O; dNMeNle = CCCC[C@@H](NC)C(=O)O; NMeNle = CCCC[C@H](NC)C(=O)O; NMeA = CN[C@@H](C)C(=O)O; Orn = NCCC[C@H](N)C(=O)O; dDap = NC[C@@H](N)C(=O)O; Dab = NCC[C@H](N)C(=O)O; Dap = NC[C@H](N)C(=O)O; ξPip = O=C(O)C1CCCCN1; ξhCys = NC(CCS)C(=O)O; ξP = O=C(O)C1CCCN1; Sar = CNCC(=O)O
# Assays:
# Human PD-L1/PD-1 = molecular target: T1, Human PD-L1/PD-1 (Homo sapiens, UniProt Q9NZQ7); assay: HTRF PD-1-Ig/PD-L1-His binding assay (human PD-L1); conditions: cluster symbol; read-out: HTRF IC50 cluster
# T1 construct: made in house; host or cells: HEK293T
# T1 sequence (Q9NZQ7 with tags, fused parts or gaps): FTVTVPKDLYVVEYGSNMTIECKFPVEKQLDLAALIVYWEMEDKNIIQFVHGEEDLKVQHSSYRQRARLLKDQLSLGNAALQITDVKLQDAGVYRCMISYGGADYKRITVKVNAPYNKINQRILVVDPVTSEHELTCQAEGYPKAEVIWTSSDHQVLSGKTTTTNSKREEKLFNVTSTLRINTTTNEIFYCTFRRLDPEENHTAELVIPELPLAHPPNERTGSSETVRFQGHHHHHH
# Outline: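 Readout: time-resolved FRET between Eu cryptate-labeled anti-Ig (1 nM final) and APC-labeled anti-His (20 nM final) antibodies. These detect interaction of Fc-fused PD-1 with His-tagged human PD-L1 in dPBS containing 0.1% BSA and 0.05% Tween-20.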
# [1] = molecular target: T2, LK35.2-hPD-L1 cells / PE-labeled PD-1-Ig (Homo sapiens, UniProt Q9NZQ7); assay: LK35.2-hPD-L1 cell binding high-content screening assay; type: cell-based; conditions: cluster symbol, read-out: CBA IC50 cluster
# T2 construct: expressed in transfected cells; host or cells: LK35.2 mouse B cell line
# T2 sequence (Q9NZQ7 19-290): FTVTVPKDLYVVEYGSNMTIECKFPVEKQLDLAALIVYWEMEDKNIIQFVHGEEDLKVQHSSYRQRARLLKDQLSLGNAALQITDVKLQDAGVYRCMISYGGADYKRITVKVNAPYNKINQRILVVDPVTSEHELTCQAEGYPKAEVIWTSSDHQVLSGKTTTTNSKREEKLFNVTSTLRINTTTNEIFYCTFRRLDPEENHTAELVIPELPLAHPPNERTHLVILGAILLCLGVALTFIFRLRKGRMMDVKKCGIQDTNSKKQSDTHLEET
# Outline: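 Binding of PE-conjugated human PD-1-Ig (1 nM final) to human PD-L1 stably expressed on a mouse B-cell line (LK35.2) was measured by high-content imaging after washes. Compound and labeled PD-1-Ig were co-incubated 1 h at 37 °C with cells in RPMI/10% FCS.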
# [2] = cell line of CBA not given (LK35.2-hPD-L1 or 293T-hPD-L1)
# [3] = cell binding assay, cell line not given
Structure (SMILES),IC50 (Human PD-L1/PD-1),"IC50 [1, 2]","IC50 [1, 3]"
CCCC[C@H]1C(=O)N(C)CC(=O)N[C@@H](CC(=O)O)C(=O)N[C@@H]([C@@H](C)OC)C(=O)N(C)[C@@H](Cc2ccccc2)C(=O)N[C@@H](Cc2ccc(O)cc2)C(=O)N(C)CC(=O)N[C@@H](Cc2c[nH]c3ccccc23)C(=O)N[C@@H](Cc2ccc(O)cc2)C(=O)N[C@@H](CC(C)C)C(=O)N[C@H](C(=O)NCC(N)=O)CSCC(=O)N[C@@H](Cc2ccccc2)C(=O)N(C)[C@@H](Cc2ccccc2)C(=O)N1C [Example 3157] ({CH2CO}-F[NMeF][NMeNle][Sar]DT(Me)[NMeF]Y[Sar]WYLCG-NH2; thioether N-13),6.76 to 30.3 nM,4.78 to 72.9 nM,–
CCCC[C@H]1C(=O)N(C)[C@@H](CCCC)C(=O)N[C@@H](CCCNC(=N)N)C(=O)N[C@H](C(=O)NCC(N)=O)CSCC(=O)N[C@@H](Cc2ccccc2)C(=O)N(C)[C@@H](C)C(=O)N[C@@H](CC(N)=O)C(=O)N2CCC[C@H]2C(=O)N[C@@H](Cc2cnc[nH]2)C(=O)N[C@@H](CO)C(=O)N(C)CC(=O)N[C@@H](Cc2c[nH]c3ccccc23)C(=O)N[C@@H](CO)C(=O)N[C@@H](Cc2c[nH]c3ccccc23)C(=O)N1C [Example 6010] ({CH2CO}-F[NMeA]NPHS[Sar]WSW[NMeNle][NMeNle]RCG-NH2; thioether N-14),> 30.5 nM,–,> 74.3 nM
CCCC[C@H]1C(=O)N(C)[C@@H](CCCC)C(=O)N[C@@H](CCCNC(=N)N)C(=O)N[C@H](C(=O)NCC(N)=O)CSCC(=O)N[C@@H](Cc2ccc(O)cc2)C(=O)N(C)[C@@H](C)C(=O)N[C@@H](CN)C(=O)N2CCC[C@H]2C(=O)N[C@@H](Cc2c[nH]cn2)C(=O)N[C@@H](CC(=O)O)C(=O)N2C[C@H](O)C[C@H]2C(=O)N[C@@H](Cc2c[nH]c3ccccc23)C(=O)N[C@@H](CO)C(=O)N[C@@H](Cc2c[nH]c3ccccc23)C(=O)N1C [Example 5134] ({CH2CO}-Y[NMeA][Dap]PHD[Hyp]WSW[NMeNle][NMeNle]RCG-NH2; thioether N-14),0.385 to 6.74 nM,–,4.78 to 72.9 nM
"CCCC[C@H]1C(=O)N2C[C@H](O)C[C@@H]2C(=O)N[C@@H](CC(=O)O)C(=O)N[C@@H](C(C)C)C(=O)N(C)[C@@H](Cc2ccccc2)C(=O)N[C@@H](Cc2ccc(O)cc2)C(=O)N(C)[C@@H](CCC(=O)O)C(=O)N[C@@H](Cc2c[nH]c3ccccc23)C(=O)N[C@@H](Cc2ccc(O)cc2)C(=O)N[C@@H](CC(C)C)C(=O)N[C@H](C(=O)NCC(N)=O)CSCC(=O)N[C@@H](Cc2cc(F)c(F)c(F)c2)C(=O)N(C)[C@@H](Cc2ccccc2)C(=O)N1C [Example 3182] ({CH2CO}-[Phe(3,4,5-F3)][NMeF][NMeNle][d(cisHyp)]DV[NMeF]Y[NMeE]WYLCG-NH2; thioether N-13)",0.385 to 6.74 nM,0.158 to 4.71 nM,–
CCCC[C@H]1C(=O)N(C)[C@@H](CCCC)C(=O)N[C@@H](CC(C)C)C(=O)N[C@H](C(=O)NCC(N)=O)CSCC(=O)N[C@@H](Cc2ccc(O)cc2)C(=O)N(C)[C@@H](C)C(=O)N[C@@H](CC(N)=O)C(=O)N2CCC[C@H]2C(=O)N[C@@H](Cc2c[nH]cn2)C(=O)N[C@@H](CCC(N)=O)C(=O)N2C[C@H](O)C[C@H]2C(=O)N[C@@H](Cc2c[nH]c3ccccc23)C(=O)N[C@@H](CO)C(=O)N[C@@H](Cc2c[nH]c3ccccc23)C(=O)N1C [Example 5075] ({CH2CO}-Y[NMeA]NPHQ[Hyp]WSW[NMeNle][NMeNle]LCG-NH2; thioether N-14),0.385 to 6.74 nM,–,0.158 to 4.71 nM
CCCC[C@@H]1C(=O)N(C)[C@H](CCCC)C(=O)N[C@@H](C)C(=O)N[C@@H](C(=O)NCC(N)=O)CSCC(=O)N[C@@H](Cc2ccc(O)cc2)C(=O)N2CCCC2C(=O)N[C@H](CC(=O)O)C(=O)N2CCC[C@H]2C(=O)N[C@H](CN)C(=O)N[C@@H](CCC(=O)O)C(=O)N2CCCC2C(=O)N[C@H](Cc2c[nH]c3ccccc23)C(=O)N[C@@H](CCN)C(=O)N[C@@H](Cc2c[nH]c3ccccc23)C(=O)N1C (some centres unmarked) [Example 1209] ({CH2CO}-Y[ξP][dD]P[dDap]E[ξP][dW][Dab]W[dNMeNle][dNMeNle]A[dC]G-NH2; thioether N-14),6.76 to 30.3 nM,4.78 to 72.9 nM,–
CCCC[C@@H]1C(=O)N(C)[C@H](CCCC)C(=O)N[C@@H](CCCNC(=N)N)C(=O)N[C@@H](C(=O)NCC(N)=O)CSCC(=O)N[C@@H](Cc2ccc(O)cc2)C(=O)N2CCCCC2C(=O)N[C@H](CC(=O)O)C(=O)N2CCC[C@H]2C(=O)N[C@H](Cc2c[nH]cn2)C(=O)N[C@@H](CCCN)C(=O)N2C[C@H](O)CC2C(=O)N[C@H](Cc2c[nH]c3ccccc23)C(=O)N[C@@H](CO)C(=O)N[C@@H](Cc2c[nH]c3ccccc23)C(=O)N1C (stereo partly drawn) [Example 1218] ({CH2CO}-Y[ξPip][dD]P[dH][Orn][ξPro(4R-OH)][dW]SW[dNMeNle][dNMeNle]R[dC]G-NH2; thioether N-14),6.76 to 30.3 nM,4.78 to 72.9 nM,–
CCCC[C@H]1C(=O)N(C)[C@@H](CCCC)C(=O)N[C@@H](CCCNC(=N)N)C(=O)N[C@H](C(=O)NCC(N)=O)CSCC(=O)N[C@@H](Cc2cccc(C)c2)C(=O)N(C)[C@@H](C)C(=O)N[C@@H](CC(N)=O)C(=O)N2CCC[C@H]2C(=O)N[C@@H](Cc2cnc[nH]2)C(=O)N[C@@H](CC(C)C)C(=O)N2C[C@H](O)C[C@H]2C(=O)N[C@@H](Cc2c[nH]c3ccccc23)C(=O)N[C@@H](CO)C(=O)N[C@@H](Cc2c[nH]c3ccccc23)C(=O)N1C [Example 7057] ({CH2CO}-[Phe(3-Me)][NMeA]NPHL[Hyp]WSW[NMeNle][NMeNle]RCG-NH2; thioether N-14),0.385 to 6.74 nM,–,4.78 to 72.9 nM
CCCC[C@@H]1C(=O)N(C)[C@H](CCCC)C(=O)N[C@@H](CCCN)C(=O)N[C@@H](C(=O)NCC(N)=O)CSCC(=O)N[C@@H](Cc2ccc(O)cc2)C(=O)N2CCCCC2C(=O)N[C@H](CC(=O)O)C(=O)N2CCC[C@H]2C(=O)N[C@H](Cc2c[nH]cn2)C(=O)N[C@@H](CCC(=O)O)C(=O)N2C[C@H](O)CC2C(=O)N[C@H](Cc2c[nH]c3ccccc23)C(=O)N[C@@H](CO)C(=O)N[C@@H](Cc2c[nH]c3ccccc23)C(=O)N1C (stereo partly drawn) [Example 1219] ({CH2CO}-Y[ξPip][dD]P[dH]E[ξPro(4R-OH)][dW]SW[dNMeNle][dNMeNle][Orn][dC]G-NH2; thioether N-14),6.76 to 30.3 nM,0.158 to 4.71 nM,–
"CCCC[C@H]1C(=O)N(C)CC(=O)N[C@@H](CC(=O)O)C(=O)N[C@@H](C(C)C)C(=O)N(C)[C@@H](Cc2ccccc2)C(=O)N[C@@H](CCC(=O)O)C(=O)N(C)[C@@H](CCC(=O)O)C(=O)N[C@@H](Cc2c[nH]c3ccccc23)C(=O)N[C@@H](Cc2ccc(O)cc2)C(=O)N[C@@H](CCC(=O)O)C(=O)N[C@H](C(=O)NCC(N)=O)CSCC(=O)N[C@@H](Cc2ccccc2)C(=O)N(C)[C@@H](Cc2ccccc2)C(=O)N1C [Example 3075] (HELM PEPTIDE1{[O=C(C[*:3])[*:2]].F.[meF].[CCCC[C@@H](C(=O)[*:2])N(C)[*:1]].[Sar].D.V.[meF].E.[meE].W.Y.E.C.G.[am]}$PEPTIDE1,PEPTIDE1,1:R3-14:R3$$$V2.0)",> 30.5 nM,> 74.3 nM,–
CCCC[C@H]1C(=O)N(C)[C@@H](CCCC)C(=O)N[C@@H](CN)C(=O)N[C@H](C(=O)NCC(N)=O)CSCC(=O)N[C@@H](Cc2ccc(O)cc2)C(=O)N(C)[C@@H](C)C(=O)N[C@@H](CC(N)=O)C(=O)N2CCC[C@H]2C(=O)N[C@@H](CN)C(=O)N[C@@H](CCC(=O)O)C(=O)N2C[C@H](O)C[C@H]2C(=O)N[C@@H](Cc2c[nH]c3ccccc23)C(=O)N[C@@H](CO)C(=O)N[C@@H](Cc2c[nH]c3ccccc23)C(=O)N1C [Example 5061] ({CH2CO}-Y[NMeA]NP[Dap]E[Hyp]WSW[NMeNle][NMeNle][Dap]CG-NH2; thioether N-14),0.385 to 6.74 nM,–,0.158 to 4.71 nM
CCCC[C@H]1C(=O)N(C)[C@@H](CCCC)C(=O)N[C@@H](CCCNC(=N)N)C(=O)NC(C(=O)NCC(N)=O)CCSCC(=O)N[C@@H](Cc2ccc(O)cc2)C(=O)N(C)[C@@H](C)C(=O)N[C@@H](CC(N)=O)C(=O)N2CCC[C@H]2C(=O)N[C@@H](Cc2cnc[nH]2)C(=O)N[C@@H](CC(C)C)C(=O)N2C[C@H](O)C[C@H]2C(=O)N[C@@H](Cc2c[nH]c3ccccc23)C(=O)N[C@@H](CO)C(=O)N[C@@H](Cc2csc3ccccc23)C(=O)N1C (some centres unmarked) [Example 9020] ({CH2CO}-Y[NMeA]NPHL[Hyp]WS[Bta][NMeNle][NMeNle]R[ξhCys]G-NH2; thioether N-14),0.385 to 6.74 nM,–,4.78 to 72.9 nM
CCCC[C@H]1C(=O)N[C@@H](CN)C(=O)N[C@H](C(=O)NCC(N)=O)CSCC(=O)N[C@@H](Cc2ccc(O)cc2)C(=O)N(C)[C@@H](C)C(=O)N[C@@H](CC(N)=O)C(=O)N2CCC[C@H]2C(=O)N[C@@H](Cc2c[nH]cn2)C(=O)N[C@@H](CCC(=O)O)C(=O)N2C[C@H](O)C[C@H]2C(=O)N[C@@H](Cc2c[nH]c3ccccc23)C(=O)N[C@@H](CCN)C(=O)N[C@@H](Cc2c[nH]c3ccccc23)C(=O)N(C)[C@@H](C(C)CC)C(=O)N1C (some centres unmarked) [Example 5146] ({CH2CO}-Y[NMeA]NPHE[Hyp]W[Dab]W[NMeIle(3ξ)][NMeNle][Dap]CG-NH2; thioether N-14),6.76 to 30.3 nM,–,4.78 to 72.9 nM
